The text below walks through data of patent US11077098B2, “Opioid receptor ligands and methods of using and making same” (TREVENA, INC., priority 2011, dated 2021).

This test deals with mice. Description: hot plate assay for antinociception in mice. Type of test: in vivo, mouse. The note with it: for analgesic effect in the mouse hot plate assay compared to morphine / ED50: SC; for ED50: tested thirty minutes after drug administration. On the procedure:
The hot plate assay is adapted from the procedure originally described by O'Callaghan and Holtzman (JPET, 192, 497, 1975) and is commonly used to determine the potential analgesic efficacy of opioid agonists. The antinociceptive effect of the composition(s) described herein in the hot plate is expressed in % MPE (Maximum Possible Effect).
Rats (175-250 g) or mice (20-30 g) acclimated to the vivarium for at least 48 hr prior to behavioral testing. Test drugs were administered by the subcutaneous (SC) route. Animals were placed on the hot plate, which the temperature was set at 50-56° C., depending on the in vitro potency of the compound. A cutoff time of 30-60 seconds was used depending on the temperature of the hot plate so that the paws of the animal displaying analgesia, was not damaged by the heat stimulus. The cutoff time was considered a 100% response to the thermal insult. Prior to drug treatment, each animal was tested to determine the baseline response. Thirty minutes after drug administration, animals were re-tested. Dose response experiments were performed to evaluate the potency of the test compound when various doses were administered at the point when maximal analgesia is observed.
The % MPE was calculated according to the following formula: % MPE=[(Post drug latency−baseline latency)/(60 or 30−baseline latency)]×100
ED50 values were calculated from the mean % MPE values for each group using log dose-response curves by least-squares regression analysis.
(Thermal pain tests record how soon the animal reacts.)

What is called ED50 is the dose at which the effect has come halfway, by size or by number of responders. Read a high ED50 as a need for a large dose. As for `c1ccc(CNCC[C@@]2(c3ccccn3)CCOC3(CCCC3)C2)cc1` [Compound 28], the “analgesic effect in the mouse hot plate assay compared to morphine” value is reported as “more robust analgesic effect”. For the same compound, the 50% effect level (mouse hot plate) (ED50) was put at a dose of 1.2 mg/kg.

Regarding `Fc1ccc([C@]2(CCNCc3ccccc3)CCOC3(CCCC3)C2)cc1` [Compound 81, benzyl({2-[(9R)-9-(4-fluorophenyl)-6-oxaspiro[4.5]decan-9-yl]ethyl})amine], where the note is “mouse hot plate, at 10 mg/kg SC”, the “% MPE” value is 100% at 10.

Regarding `Cc1cccc(CNCC[C@@]2(c3ccc(F)cc3)CCOC3(CCCC3)C2)c1` [Compound 122, {2-[(9R)-9-(4-fluorophenyl)-6-oxaspiro[4.5]decan-9-yl]ethyl}[(3-methylphenyl)methyl]amine], the “analgesic effect in the mouse hot plate assay compared to morphine” value is listed as “more robust analgesic effect”. Besides, the ED50 (mouse hot plate) came to 1.1 mg/kg.

Compound `Cc1ccc(CNCC[C@@]2(c3ccc(F)cc3)CCOC3(CCCC3)C2)s1` [Compound 145] yielded an ED50 (mouse hot plate) of 5.9 mg/kg.

For `CN1CC[C@]23c4c5ccc(O)c4O[C@H]2[C@@H](O)C=C[C@H]3[C@H]1C5` [Morphine, reference compound], the “efficacy in the mouse hot plate” value (at a dose of 10 mg/kg SC) is given as “full efficacy”. For the same compound, the 50% effect level (mouse hot plate) (ED50) was put at a dose of 3.8 mg/kg.
